Drawing on patent publication US11612606B2, “8-aminoisoquinoline compounds and uses thereof” (priority 2018, dated 2023), this text covers Ki for 33 compounds.

pKi: −log10 of the molar value. Where a name gives a salt, the structure may show the parent alone.

For the experiment, the target named is HPK full length, T165E S171E (Homo sapiens (Human), UniProt Q92918, S171E/T165E). Nature of the experiment: HPK1-FL HTRF enzymatic assay ("HTRF"). Type of experiment: biochemical. Conditions: ATP 1 mM, read-out: HPK1 Ki. In short, it runs like this: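 Full-length HPK1 (T165E/S171E) was preincubated 30 min with compound, then reacted 60 min with biotin-SLP-76 and 1 mM ATP. Phospho-SLP-76 was detected by HTRF (Eu-anti-pSLP76 antibody, SA-XL665) after a further 60 min.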
Sequence of HPK full length, T165E S171E (Q92918 whole entry T165E/S171E, looked up): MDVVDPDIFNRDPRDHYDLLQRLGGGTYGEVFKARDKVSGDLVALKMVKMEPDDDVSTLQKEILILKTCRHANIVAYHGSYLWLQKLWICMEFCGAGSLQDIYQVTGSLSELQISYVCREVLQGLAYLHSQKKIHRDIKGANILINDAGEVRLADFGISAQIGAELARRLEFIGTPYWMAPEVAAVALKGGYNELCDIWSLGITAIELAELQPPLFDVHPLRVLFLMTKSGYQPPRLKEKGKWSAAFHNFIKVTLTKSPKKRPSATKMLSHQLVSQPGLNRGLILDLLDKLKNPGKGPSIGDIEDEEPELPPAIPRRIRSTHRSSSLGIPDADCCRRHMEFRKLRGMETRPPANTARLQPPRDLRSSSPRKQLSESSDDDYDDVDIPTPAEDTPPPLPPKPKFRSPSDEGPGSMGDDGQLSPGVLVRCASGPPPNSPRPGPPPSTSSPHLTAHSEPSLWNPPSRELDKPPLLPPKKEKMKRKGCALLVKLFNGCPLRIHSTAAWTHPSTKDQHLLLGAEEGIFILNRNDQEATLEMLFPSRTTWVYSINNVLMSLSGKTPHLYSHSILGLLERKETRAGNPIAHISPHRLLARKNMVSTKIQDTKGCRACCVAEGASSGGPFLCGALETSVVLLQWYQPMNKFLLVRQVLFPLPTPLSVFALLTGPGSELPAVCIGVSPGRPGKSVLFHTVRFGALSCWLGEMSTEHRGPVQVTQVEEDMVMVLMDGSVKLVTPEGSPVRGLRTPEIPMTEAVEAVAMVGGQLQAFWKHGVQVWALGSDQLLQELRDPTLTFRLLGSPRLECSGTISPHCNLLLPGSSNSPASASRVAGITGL
On to `Cc1c(-c2cc3cc(NC(=O)O[C@H]4CC[C@@H](O)C4)ncc3c(N)c2F)cnc2c1NCCO2` (single isomer, unassigned) [Compound 582a], for which the negative logarithm of the Ki (pKi) is 10.70.

For `Cc1c(-c2cc3cc(NC(=O)O[C@@H](C)CN(C)C)ncc3c(N)c2F)cnc2c1NCCO2` (single isomer, unassigned) [Compound 523b, (5)-1-(Dimethylamino)propan-2-yl (8-amino-7-fluoro-6-(8-methyl-2,3-dihydro-1H-pyrido[2,3-b][1,4]oxazin-7-yl)isoquinolin-3-yl)carbamate], the pKi is 8.06.

Consider `Cc1c(-c2cc3cc(NC(=O)OC4CCOCC4)ncc3c(N)c2F)cnc2c1NCCC2O` (stereo not drawn) [Compound 413, Tetrahydro-2H-pyran-4-yl (8-amino-7-fluoro-6-(8-hydroxy-4-methyl-5,6,7,8-tetrahydro-1,5-naphthyridin-3-yl)isoquinolin-3-yl)carbamate], for which the pKi is 9.19.

Turning to `Cc1c(-c2cc3cc(NC(=O)O[C@@H]4Cc5ncnn5C4)ncc3c(N)c2F)cnc2c1NCCO2` (single isomer, unassigned) [Compound 578a], the pKi is 10.55.

Take `Cc1c(-c2cc3cc(NC(=O)O[C@H]4CC[C@](C)(O)C4)ncc3c(N)c2F)cnc2c1NCCO2` (single isomer, unassigned) [Compound 533b, hydrochloride]: the pKi is 10.23.

Regarding `Cc1c(-c2cc3cc(NC(=O)OC4C5COCC4CN(C(C)C)C5)ncc3c(N)c2F)cnc2c1NCCO2` (single isomer, unassigned) [Compound 506a], the pKi was greater than 10.89.

Turning to `CO[C@@H]1COCC[C@@H]1OC(=O)Nc1cc2cc(-c3cnc4c(c3C)NCCO4)c(F)c(N)c2cn1` (single isomer, unassigned) [Compound 583c], the pKi was 10.00.

Take `CCC(=O)N1CC(OC(=O)Nc2cc3cc(-c4cnc5c(c4C)NCCC5)c(F)c(N)c3cn2)C1` [Compound 492, 1-Propionylazetidin-3-yl (8-amino-7-fluoro-6-(4-methyl-5,6,7,8-tetrahydro-1,5-naphthyridin-3-yl)isoquinolin-3-yl)carbamate]: the negative logarithm of the Ki (pKi) was 10.26.

Turning to `Cc1c(-c2cc3cc(NC(=O)OC4C5COCC4CN(C4COC4)C5)ncc3c(N)c2F)cnc2c1NCCO2` [Compound 575a, (1R,5S,9s)-7-(Oxetan-3-yl)-3-oxa-7-azabicyclo[3.3.1]nonan-9-yl (8-amino-7-fluoro-6-(8-methyl-2,3-dihydro-1H-pyrido[2,3-b][1,4]oxazin-7-yl)isoquinolin-3-yl)carbamate], the pKi was greater than 10.89.

With `Cc1c(-c2cc3cc(NC(=O)O[C@H]4CN(C)C(=O)C4(C)C)ncc3c(N)c2F)cnc2c1NCCO2` (single isomer, unassigned) [Compound 480b], the negative-log Ki (pKi) is 9.55.

`Cc1c(-c2cc3cc(NC(=O)N[C@H]4C[C@H]4F)ncc3c(N)c2F)cnc2c1NCCO2` [Compound 734a, 1-[8-Amino-7-fluoro-6-(8-methyl-2,3-dihydro-1H-pyrido[2,3-b][1,4]oxazin-7-yl)-3-isoquinolyl]-3-[(1S,2R)-2-fluorocyclopropyl]urea]: the negative-log Ki (pKi) is greater than 10.89.

As to `Cc1c(-c2cc3cc(NC(=O)O[C@H]4C[C@H](C(C)(C)C#N)C4)ncc3c(N)c2F)cnc2c1NCCO2` [Compound 549b, (1r,3r)-3-(2-Cyanopropan-2-yl)cyclobutyl (8-amino-7-fluoro-6-(8-methyl-2,3-dihydro-1H-pyrido[2,3-b][1,4]oxazin-7-yl)isoquinolin-3-yl)carbamate], the pKi is greater than 10.89.

With `CN[C@H]1C[C@H](OC(=O)Nc2cc3cc(-c4cnc5c(c4C)NCCO5)c(F)c(N)c3cn2)C1` [Compound 539a, (1r,3r)-3-(Methylamino)cyclobutyl (8-amino-7-fluoro-6-(8-methyl-2,3-dihydro-1H-pyrido[2,3-b][1,4]oxazin-7-yl)isoquinolin-3-yl)carbamate], the pKi is greater than 10.89.

For `CO[C@@H]1CCC[C@@H]1NC(=O)Nc1cc2cc(-c3cnc4c(c3C)NCCO4)c(F)c(N)c2cn1` (single isomer, unassigned) [Compound 729a], the pKi is 8.86.

As for `Cc1c(-c2cc3cc(NC(=O)OC4CN(S(C)(=O)=O)C4)ncc3c(N)c2F)cnc2c1NCCO2` [Compound 552, 1-(Methylsulfonyl)azetidin-3-yl (8-amino-7-fluoro-6-(8-methyl-2,3-dihydro-1H-pyrido[2,3-b][1,4]oxazin-7-yl)isoquinolin-3-yl)carbamate], the pKi is 10.85.

With `Cc1c(-c2cc3cc(NC(=O)O[C@H]4COCCN(C)C4)ncc3c(N)c2F)cnc2c1NCCO2` (single isomer, unassigned) [Compound 440a], the negative logarithm of the Ki (pKi) is 10.08.

In the case of `Cc1c(-c2cc3cc(NC(=O)NC4CCC4)ncc3c(N)c2F)cnc2c1NCCO2` [Compound 707, 1-(8-Amino-7-fluoro-6-(8-methyl-2,3-dihydro-1H-pyrido[2,3-b][1,4]oxazin-7-yl)isoquinolin-3-yl)-3-cyclobutylurea], the pKi was greater than 10.89.

On to `CO[C@H]1COCC[C@H]1NC(=O)Nc1cc2cc(-c3cnc4c(c3C)NCCO4)c(F)c(N)c2cn1` (single isomer, unassigned) [Compound 750b], for which the pKi was greater than 10.89.

As for `Cc1c(-c2cc3cc(NC(=O)N[C@@H]4CCN(C)C[C@H]4F)ncc3c(N)c2F)cnc2c1NCCO2` (single isomer, unassigned) [Compound 703a], the negative-log Ki (pKi) is 10.66.

As for `Cc1c(-c2cc3cc(NC(=O)OC4CCOC4)ncc3c(N)c2F)cnc2c1NCCO2` (racemic) [Compound 403, (±)-Tetrahydrofuran-3-yl (8-amino-7-fluoro-6-(8-methyl-2,3-dihydro-1H-pyrido[2,3-b][1,4]oxazin-7-yl)isoquinolin-3-yl)carbamate], the pKi was 10.64.

As to `Cc1c(-c2cc3cc(NC(=O)O[C@H]4COC[C@@H]4C4CC4)ncc3c(N)c2F)cnc2c1NCCO2` (single isomer, unassigned) [Compound 516a], the negative-log Ki (pKi) was 10.51.

For `Cc1c(-c2cc3cc(NC(=O)O[C@H]4C[C@@H](CC#N)C4)ncc3c(N)c2F)cnc2c1NCCO2` [Compound 536a, (1r,3s)-3-(Cyanomethyl)cyclobutyl (8-amino-7-fluoro-6-(8-methyl-2,3-dihydro-1H-pyrido[2,3-b][1,4]oxazin-7-yl)isoquinolin-3-yl)carbamate], the pKi is greater than 10.89.

Turning to `Cc1c(-c2cc3cc(NC(=O)OC4CCN(C5COC5)CC4)ncc3c(N)c2F)cnc2c1NCCO2` [Compound 421, 1-(Oxetan-3-yl)piperidin-4-yl (8-amino-7-fluoro-6-(8-methyl-2,3-dihydro-1H-pyrido[2,3-b][1,4]oxazin-7-yl)isoquinolin-3-yl)carbamate], the negative logarithm of the Ki (pKi) was greater than 10.89.

For the compound `Cc1c(-c2cc3cc(NC(=O)OC4CCN(CC(F)(F)F)CC4)ncc3c(N)c2F)cnc2c1NCCO2` [Compound 422, 1-(2,2,2-Trifluoroethyl)piperidin-4-yl (8-amino-7-fluoro-6-(8-methyl-2,3-dihydro-1H-pyrido[2,3-b][1,4]oxazin-7-yl)isoquinolin-3-yl)carbamate], the pKi is 10.64.

On to `Cc1c(-c2cc3cc(NC(=O)O[C@@H]4CCN([C@@H]5CCOC5)C[C@@H]4F)ncc3c(N)c2F)cnc2c1NCCO2` [Compound 569b, (3S,4R)-3-fluoro-1-((R)-tetrahydrofuran-3-yl)piperidin-4-yl (8-amino-7-fluoro-6-(8-methyl-2,3-dihydro-1H-pyrido[2,3-b][1,4]oxazin-7-yl)isoquinolin-3-yl)carbamate], for which the pKi was 9.60.

With `CO[C@@H]1COCC[C@H]1OC(=O)Nc1cc2cc(-c3cnc4c(c3C)NCCO4)c(F)c(N)c2cn1` (single isomer, unassigned) [Compound 583d], the negative logarithm of the Ki (pKi) is 9.14.

`Cc1c(-c2cc3cc(NC(=O)O[C@H]4[C@@H]5CN(C6COC6)C[C@@H]54)ncc3c(N)c2F)cnc2c1NCCO2` [Compound 502a, (1R,5S,6s)-3-(Oxetan-3-yl)-3-azabicyclo[3.1.0]hexan-6-yl (8-amino-7-fluoro-6-(8-methyl-2,3-dihydro-1H-pyrido[2,3-b][1,4]oxazin-7-yl)isoquinolin-3-yl)carbamate]: the pKi was greater than 10.89.

As for `CC(=O)N1CC(OC(=O)Nc2cc3cc(-c4cnc5c(c4C)NCCC5)c(F)c(N)c3cn2)C1` [Compound 429, 1-Acetylazetidin-3-yl (8-amino-7-fluoro-6-(4-methyl-5,6,7,8-tetrahydro-1,5-naphthyridin-3-yl)isoquinolin-3-yl)carbamate formic acid], the negative logarithm of the Ki (pKi) was 10.55.

On to `Cc1c(-c2cc3cc(NC(=O)OC4CN(C)C4)ncc3c(N)c2F)cnc2c1NCCO2` [Compound 402, 1-Methylazetidin-3-yl (8-amino-7-fluoro-6-(8-methyl-2,3-dihydro-1H-pyrido[2,3-b][1,4]oxazin-7-yl)isoquinolin-3-yl)carbamate], for which the pKi was 9.96.

Turning to `CO[C@H]1COC[C@H]1NC(=O)Nc1cc2cc(-c3cnc4c(c3C)NCCO4)c(F)c(N)c2cn1` (single isomer, unassigned) [Compound 723b], the negative-log Ki (pKi) was 10.54.

As for `Cc1c(-c2cc3cc(NC(=O)O[C@H]4C[C@@H](N5CC(F)(F)C5)C4)ncc3c(N)c2F)cnc2c1NCCO2` [Compound 513a, (1s, 3s)-3-(3,3-Difluoroazetidin-1-yl)cyclobutyl (8-amino-7-fluoro-6-(8-methyl-2,3-dihydro-1H-pyrido[2,3-b][1,4]oxazin-7-yl)isoquinolin-3-yl)carbamate], the pKi is 10.66.

For the compound `Cc1c(-c2cc3cc(NC(=O)OC4CN(S(C)(=O)=O)C4)ncc3c(N)c2F)cnc2c1NCCC2` [Compound 493, 1-(Methylsulfonyl)azetidin-3-yl (8-amino-7-fluoro-6-(4-methyl-5,6,7,8-tetrahydro-1,5-naphthyridin-3-yl)isoquinolin-3-yl)carbamate], the negative-log Ki (pKi) is 10.19.

Turning to `Cc1c(-c2cc3cc(NC(=O)OC4CC5(CCNCC5)C4)ncc3c(N)c2F)cnc2c1NCCO2` [Compound 580, 7-Azaspiro[3.5]nonan-2-yl (8-amino-7-fluoro-6-(8-methyl-2,3-dihydro-1H-pyrido[2,3-b][1,4]oxazin-7-yl)isoquinolin-3-yl)carbamate], the negative-log Ki (pKi) is greater than 10.89.
